# Tests used:
# Assay type in all cases: in vivo
# [1] = system: bleomycin-induced pulmonary fibrosis model in rats; assay: Dexamethasone side effect indicators (blood lipid metabolism) in the bleomycin-induced rat pulmonary fibrosis model; conditions: FIG. 3; for leptin level compared with the normal control rats: bleomycin model rats
# Protocol: (§1) The quarantine and domestication period was 1 week, after which rats were serpentinely grouped by body weight into control and interstitial pneumonia model groups. On day 0 of the study, rats in the model group were given a single dose of 5 mg/kg bleomycin by a single intratracheal injection of bleomycin. The rats in the control group were given a single drop of saline. Immediately after completion, the animals were placed in an upright position and rotated to facilitate uniform distribution of the drug in the lungs. The animals were placed prone in a warm environment for natural awakening. Animals were fed and watered freely after awakening.
# Serum potassium, glucose, triglycerides (TGs), total cholesterol (TC), free fatty acid (FFA), high density lipoprotein (HDL-c), low density lipoprotein (LDL-c), corticosterone (Corticosterone), and blood glucose were measured. HDL-c), low-density lipoprotein cholesterol (LDL-c), corticosterone (CORT), insulin, leptin, 5-hydroxy tryptamine (5-HT), […] norepinephrine (NE).
# [2] = system: bleomycin-induced rat model of pulmonary fibrosis; assay: Blood inflammatory and pro-fibrotic cytokines (ELISA) in the bleomycin-induced rat model of pulmonary fibrosis; conditions: for bleomycin-induced changes of multiple inflammatory cytokines in the blood of rats (overall statement): compared with the model group, N=6-10
# Protocol: as §1
# (§2) After the last administration, rats in each group were fasted without water for 12 h, anesthetized by intraperitoneal injection of […] chloral hydrate (3.5 mL/kg), blood was taken from the abdominal aorta, and the serum was separated by centrifugation at 3500 rpm for 15 min. ELISA was performed to detect the cytokines TNF-α, IL-1β, IFN-γ, IL-6, TGF-β1, and IL-4 in alveolar lavage fluid and serum, MCP-1/CCL2, and to detect the content of HYP, MMP2, MMP9, αvβ6, and VEGF in lung tissues, the steps were the same as the standard procedure of the kit.
# [3] = system: bleomycin-induced pulmonary fibrosis model in rats; assay: Pro-fibrotic proteins and type I collagen in lung tissue of the bleomycin-induced rat pulmonary fibrosis model; conditions: FIG. 2; for multiple pro-fibrotic proteins and collagen type I in rat lung tissues (overall statement): compared with the model group, N=3
# Protocol: as §1, §2
# [4] = SD rats, bleomycin 5 mg/kg intratracheal day 0, drug by gavage once daily days 1-28, FIG. 1
# [5] = bleomycin decreased the level, drug once daily days 1-28, FIG. 1
# [6] = bleomycin model rats, change statistically significant
smiles,measurement,setting,value
C[C@@H]1C[C@H]2[C@@H]3CCC4=CC(=O)C=C[C@]4(C)[C@@]3(F)[C@@H](O)C[C@]2(C)[C@@]1(O)C(=O)CO [dexamethasone],leptin level compared with the normal control rats,[1],significantly reduced
same,total cholesterol in the blood,[1]; dexamethasone treatment in bleomycin model rats,increase
same,triglycerides in the blood,"[1]; dexamethasone treatment in bleomycin model rats, increase more pronounced than for total cholesterol",increase
CCCCCC(=O)O[C@]1(C(C)=O)CC[C@H]2[C@@H]3CCC4=CC(=O)CC[C@]4(C)[C@H]3CC[C@@]21C [hydroxyprogesterone caproate],blood level of IL-1β,[2]; [4],significantly reduced
same,blood level of IL-6,[2]; [4],significantly reduced
same,blood level of MCP-1,[2]; [4],significantly reduced
same,blood level of TGF-β1,[2]; [4],significantly reduced
same,blood level of TNF-α,[2]; [4],significantly reduced
same,blood level of IFN-γ,[2]; [5],significantly and statistically increased
same,blood level of IL-4,[2]; [5],significantly and statistically increased
same,bleomycin-induced changes of multiple inflammatory cytokines in the blood of rats (overall statement),[2]; FIG. 1,significantly improve
same,bleomycin-induced changes of multiple inflammatory cytokines in the blood of rats (overall statement),"[2]; FIG. 1, listed as 17-αhydroxyprogesterone",significantly ameliorated
same,"combined improvement effect on inflammatory and pro-fibrotic factors in the blood, compared with pirfenidone",[2]; versus positive control drug pirfenidone (54 mg/kg),significantly better than that of the positive control drug pirfenidone
same,leptin level compared with the normal control rats,[1],significantly reduced
same,CXCL-12 level in lung tissue,[3]; bleomycin model rats,reduced
same,MMP9 level in lung tissue,[3]; bleomycin model rats,reduced
same,collagen type I COL I protein level in lung tissue,[3]; bleomycin model rats,reduced
same,MMP2 level in lung tissue,[3]; [6],reduced
same,PDGF level in lung tissue,[3]; [6],reduced
same,SMAD2 level in lung tissue,[3]; [6],reduced
same,SMAD3 level in lung tissue,[3]; [6],reduced
same,TGF-β1 level in lung tissue,[3]; [6],reduced
same,multiple pro-fibrotic proteins and collagen type I in rat lung tissues (overall statement),[3],significant inhibitory effects
same,multiple pro-fibrotic proteins and collagen type I in rat lung tissues (overall statement),[3]; listed as 17-αhydroxyprogesterone,significantly ameliorated

# Source: US20240299415A1, “TREATMENT METHOD FOR INTERSTITIAL PNEUMONIA” (priority 2020, published 2024)
